Reference: patent US20160175292A1, “Antioxidants Having Aromatic Structures Reacting with Superoxide” (priority 2014, published 2016)
“Also recorded” adds a separate entry of the source.

Legend:
[1] = Superoxide scavenging assay using nitroblue tetrazolium (NBT) and KO2 (FIG. 11); assay type: biochemical; conditions: NBT added 30 s, 60 s, 120 s, 300 s after KO2; diformazan at 560 nm
Protocol: The antioxidant and buffer/solvent was added to a cuvette, followed by the KO2 solution. After a set time (30 s, 60 s, 120 s, 300 s), NBT was added and the resulting mixture analyzed for the NBT diformazan (λmax=560 nm) by UV-Vis spectroscopy (FIG. 11).
In FIG. 11, PEG-HCCs and p-benzoquinone (pBQ) were also run for comparison.

[2] = test system: rat T cells; assay: In vitro proliferation of ConA-stimulated rat T cells, micromolar concentration (FIG. 10); assay type: cell-based; conditions: rat T cells stimulated with 1 μg/mL ConA
Protocol: In vitro analysis of EG3-NDI LNA20, EG8-PDI LNA30, and EG8-NDI, labeled LNA38 (which is Compound A in FIG. 4 where n=8) on T cell proliferation based on micromolar concentration was performed. 1 μg/mL ConA (mitogen) was used to stimulate rat T cells. […] Error bars represent variability between replicate wells. Unstimulated cells (left-hand bar) are shown as a negative control. Statistical analysis was performed between stimulated control cells without treatment (“Stimulated” bar) vs. various doses of the different compounds using a one-way ANOVA and Bonferonni post-hoc tests. *P<0.05, ***P<0.001, ****P<0.0001.

[3] = test system: T cell proliferation; assay: In vitro T cell proliferation (FIG. 9); assay type: cell-based
Description: This is similar to the activity observed with PEG-HCCs.

[4] = Cyclic voltammetry, reduction potential (FIG. 12); assay type: physicochemical; conditions: 50 mM PBS pH 7.4, modified glassy carbon electrode, scan rate 100 mV/s
Protocol: FIG. 12 is a cyclic voltometry (“CV”) plot of 50 mM PBS (pH=7.4) bare glassy carbon (GC) working electrode and with modified perylene tetracarboxylic anhydride (PTCA) and HCC. (Scan rate: 100 mV/s).
The triethyleneglycol-PDIs (TEG-PDIs) and TEG-NDIs have been analyzed electrochemically and show similar reduction potentials to the HCCs and PEG-HCCs. Electrochemical investigations of HCCs have placed its reduction at −0.7 V vs. Ag/AgCl, as shown by its broad peak in Plot A below.
Accordingly, the triethyleneglycol-PDIs (TEG-PDIs) and TEG-NDIs have been analyzed electrochemically and shown to have similar reduction potentials to the HCCs and PEG-HCCs. Electrochemical investigations of HCCs have placed its reduction at —0.7 V vs. Ag/AgCl (Plot A). 3,4,9,10-Perylenediimide (PDI) derivatives also have redox potentials˜−0.6 V. 1,4,5,8-Naphthalenediimide (NDI) derivatives show discrete reduction steps in the same region (Plot B).

reduction potential [4] [V vs. Ag/AgCl]	Structure (SMILES)	superoxide consumption / reaction with superoxide (reduction of NBT) [1]	effect on T cell proliferation [2]	relative potency in inhibiting T cell proliferation [2]	concentrations showing inhibitory effects on T cell proliferation [3]	effect on T cell proliferation [3]
	COCCOCCOCCN1C(=O)c2ccc3c4c(ccc(c24)C1=O)C(=O)N(CCOCCOCCOC)C3=O [LNA20, bis-methoxytriethylene glycol naphthalene diimide]	reacts with superoxide; also recorded: showed activity	exhibit an inhibitory effect	most potent	above 10 μg/mL	exhibit an inhibitory effect
	O=C1C=CC(=O)C=C1 [pBQ, p-benzoquinone, reference compound]	near complete consumption of superoxide; also recorded: nearly completely consumed				
−0.7	O=C1OC(=O)c2ccc3c4ccc5c6c(ccc(c7ccc1c2c73)c64)C(=O)OC5=O [perylene tetracarboxylic anhydride]					
